The source of these data is publication PMC9219103 (ACS Omega, 2022).

The term IC50 denotes the concentration at which inhibition is half-maximal.

One series concerns SOD. The following applies: read-out: SOD inhibition IC50; via copper chelation; cited from earlier work.
Series [1] relates to normal human cells (Wi-38). The series is described as follows: MTT cytotoxicity screening on normal human cells. The series is classed as cell-based. The following applies: for EC100 (safe concentration at 100% cell viability): Wi-38 normal human lung fibroblasts, MTT, 72 h, mean ± SEM.
In series [2] the test system is human colon cancer (Caco-2) cells. In words: MTT anticancer screening on human colon cancer Caco-2 cells. The class given is cell-based. The note with it: for IC50: Caco-2, MTT, 72 h, mean ± SEM; for Morphological changes of Caco-2 cells: 72 h treatment, phase contrast microscopy.
Another series relates to ALDH1A. In words: Inhibition of ALDH1A activity in treated Caco-2 cells. The series is classed as cell-based, human. The following applies: Caco-2 cells treated with anticancer IC50 dose, 72 h.
The next series deals with Caco-2 cells. In words: Determination of cellular ROS in Caco-2. The series is classed as cell-based, human. The note with it: Caco-2 cells treated with anticancer IC50 dose.
Series [3] relates to glutathione peroxidase (GPx). In words: Inhibition of glutathione peroxidase activity in treated Caco-2 cells. The series is classed as cell-based, human. The following applies: Caco-2 cells treated with anticancer IC50 dose, 72 h.
A further series addresses Cu/Zn SOD (Homo sapiens, UniProt P00441). The series is described as follows: Inhibition of intracellular SOD activity in treated Caco-2 cells. The class given is cell-based. The note with it: Caco-2 cells treated with anticancer IC50 dose, 72 h.

The structures appear in SMILES notation. Several values for one entry are separate records, joined by “and”; a condition that tells them apart may be missing. Identical values can stand only once.

Chain of Cu/Zn SOD (P00441 whole entry): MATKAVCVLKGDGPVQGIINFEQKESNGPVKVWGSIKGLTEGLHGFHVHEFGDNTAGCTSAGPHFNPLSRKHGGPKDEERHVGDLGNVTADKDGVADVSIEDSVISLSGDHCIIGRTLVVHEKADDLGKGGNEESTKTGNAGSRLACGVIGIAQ

With `C[N+](C)(C)CCO.C[N+](C)(C)CCO.[SH-].[SH-].[S]=[Mo]=[S]` [ATN-224, bis-choline tetrathiomolybdate], the IC50 with SOD was 0.33 µM.

`O=C1CSC(=O)N1` [Compound 1, 2,4-thiazolidinedione]: the “EC100 (safe concentration at 100% cell viability)” value in series [1] is 22.05 µM and 22.047 ± 0.434 µM. This molecule also had an IC50 in series [2] (Homo sapiens, Caco-2, 72 h) of 12.1 ± 3.25 µM.

For `O=C1N=C(O)SC1=Cc1ccccc1` [Compound 3a, 5-Benzylidenethiazolidine-2,4-dione], the “EC100 (safe concentration at 100% cell viability)” value in series [1] came out at 19.679 ± 3.105 µM. Further, the IC50 in series [2] (Homo sapiens, Caco-2, 72 h) turned out to be 74.6 ± 8.31 µM.

Turning to `O=C1NC(=O)C(=Cc2ccc([N+](=O)[O-])cc2)S1` [Compound 3c, 5-(4-Nitrobenzylidene)thiazolidine-2,4-dione], the “EC100 (safe concentration at 100% cell viability)” value in series [1] turned out to be 6.0653 ± 0.127 µM. For the same molecule, in series [2], the “Morphological changes of Caco-2 cells” value is “severe shrinkage and collapse”; the IC50 is 4.72 ± 0.602 µM. The molecule further gave an IC50 in series [2] (Homo sapiens, Caco-2, 72 h) of 4.71 µM.

For `CN(C)c1ccc(C=C2SC(O)=NC2=O)cc1` [Compound 3d, 5-(4-(Dimethylamino)benzylidene)thiazolidine-2,4-dione], the “EC100 (safe concentration at 100% cell viability)” value in series [1] was 25.35 µM and 25.345 ± 0.655 µM. In addition, the IC50 in series [2] (Homo sapiens, Caco-2, 72 h) amounted to 8.95 ± 0.631 µM.

Turning to `O=C1NC(=O)C(=Cc2ccc(O)cc2)S1` [Compound 3e, 5-(4-Hydroxybenzylidene)thiazolidine-2,4-dione], the “EC100 (safe concentration at 100% cell viability)” value in series [1] turned out to be 6.727 ± 0.040 µM. The same molecule yielded an IC50 in series [2] (Homo sapiens, Caco-2, 72 h) of 8.48 ± 0.599 µM.

Take `C=CCN1C(=O)SC(=Cc2ccccc2)C1=O` [Compound 4a, 3-Allyl-5-benzylidenethiazolidine-2,4-dione]: the “EC100 fold relative to doxorubicin (safety)” value in series [1] (Wi-38, EC100 compound vs DOX) was “approximately 47.5 folds”. Also, the “EC100 (safe concentration at 100% cell viability)” value in series [1] was 58.92 µM and 58.916 ± 10.698 µM. The molecule further gave an IC50 in series [2] (Homo sapiens, Caco-2, 72 h) of 12 ± 1.36 µM.

With `C=CCN1C(=O)SC(=Cc2cccc(Cl)c2)C1=O` [Compound 4b, 3-Allyl-5-(3-chlorobenzylidene)thiazolidine-2,4-dione], in series [1], the “EC100 (safe concentration at 100% cell viability)” value came to 9.902 ± 2.360 µM. The molecule further returned an IC50 in series [2] (Homo sapiens, Caco-2, 72 h) of 13.8 ± 0.789 µM.

In the case of `C=CCN1C(=O)SC(=Cc2ccc([N+](=O)[O-])cc2)C1=O` [Compound 4c, 3-Allyl-5-(4-nitrobenzylidene)thiazolidine-2,4-dione], the “EC100 (safe concentration at 100% cell viability)” value in series [1] was 7.078 ± 0.136 µM. Also, the IC50 in series [2] (Homo sapiens, Caco-2, 72 h) was 6.52 ± 0.077 µM.

In the case of `C=CCN1C(=O)SC(=Cc2ccc(N(C)C)cc2)C1=O` [Compound 4d, 3-Allyl-5-(4-(dimethylamino)benzylidene)thiazolidine-2,4-dione], in series [2] (Homo sapiens, Caco-2, 72 h), half-maximal inhibition (IC50) was put at 7.062 ± 0.005 µM.

With `C=CCOc1ccc(C=C2SC(=O)N(CC=C)C2=O)cc1` [Compound 4e, 3-Allyl-5-(4-(allyloxy)benzylidene)thiazolidine-2,4-dione], in series [2] (Homo sapiens, Caco-2, 72 h), the IC50 stood at 12.2 ± 3.12 µM.

In turn, `CCOC(=O)CN1C(=O)SC(=Cc2ccccc2)C1=O` [Compound 5a, Ethyl-2-(5-benzylidene-2,4-dioxothiazolidin-3-yl)acetate] registered an IC50 in series [2] (Homo sapiens, Caco-2, 72 h) of 8.2 ± 0.135 µM.

On to `CCOC(=O)CN1C(=O)SC(=Cc2ccc([N+](=O)[O-])cc2)C1=O` [Compound 5c, Ethyl-2-(5-(4-nitrobenzylidene)-2,4-dioxothiazolidin-3-yl)acetate], for which the “EC100 (safe concentration at 100% cell viability)” value in series [1] is 8.573 ± 0.409 µM. In series [2] (Homo sapiens, Caco-2, 72 h), the IC50 turned out to be 6.67 ± 0.118 µM.

With `CCOC(=O)CN1C(=O)SC(=Cc2ccc(N(C)C)cc2)C1=O` [Compound 5d, Ethyl-2-(5-(4-(dimethylamino)benzylidene)-2,4-dioxothiazolidin-3-yl)acetate], the “EC100 (safe concentration at 100% cell viability)” value in series [1] came out at 16.179 ± 6.066 µM. Further, in series [2] (Homo sapiens, Caco-2, 72 h), the IC50 came out at 8.24 ± 2.59 µM.

`CCOC(=O)COc1ccc(C=C2SC(=O)N(CC(=O)OCC)C2=O)cc1` [Compound 5e, Ethyl-2-(5-(4-(2-ethoxy-2-oxoethoxy)benzylidene)-2,4-dioxothiazolidin-3-yl)acetate]: the “EC100 (safe concentration at 100% cell viability)” value in series [1] is 8.417 ± 0.004 µM. Moreover, 8.57 ± 0.942 µM corresponded to half-maximal inhibition in series [2] (Homo sapiens, Caco-2, 72 h) (IC50).

Turning to `O=C1SC(=Cc2ccccc2)C(=O)N1CCCBr` [Compound 6a, 5-Benzylidene-3-(3-bromopropyl)thiazolidine-2,4-dione], the “EC100 (safe concentration at 100% cell viability)” value in series [1] worked out at 18.938 ± 0.975 µM. For the same molecule, in series [2], the “Morphological changes of Caco-2 cells” value was “severe shrinkage and collapse”; the IC50 came to 4.739 ± 0.021 µM. Also, in series [2] (Homo sapiens, Caco-2, 72 h), it took 4.73 µM to reach half-maximal inhibition (IC50).

On to `O=C1SC(=Cc2ccc([N+](=O)[O-])cc2)C(=O)N1CCCBr` [Compound 6c, 3-(3-Bromopropyl)-5-(4-nitrobenzylidene)thiazolidine-2,4-dione], for which the “EC100 (safe concentration at 100% cell viability)” value in series [1] worked out at 13.424 ± 1.130 µM. This molecule had an IC50 in series [2] (Homo sapiens, Caco-2, 72 h) of 10.4 ± 0.499 µM.

For `CN(C)c1ccc(C=C2SC(=O)N(CCCBr)C2=O)cc1` [Compound 6d, 3-(3-Bromopropyl)-5-(4-(dimethylamino)benzylidene)thiazolidine-2,4-dione], in series [1], the “EC100 (safe concentration at 100% cell viability)” value is 14.776 ± 1.125 µM. Also, in series [2] (Homo sapiens, Caco-2, 72 h), the IC50 turned out to be 7.94 ± 0.599 µM.

Consider `O=C1SC(=Cc2ccc(OCCCBr)cc2)C(=O)N1CCCBr` [Compound 6e, 5-(4-(3-Bromopropoxy)benzylidene)-3-(3-bromopropyl)thiazolidine-2,4-dione], for which the “EC100 (safe concentration at 100% cell viability)” value in series [1] stood at 10.683 ± 2.384 µM. In series [2], the “Morphological changes of Caco-2 cells” value is “severe shrinkage and collapse”. Also, the IC50 in series [2] amounted to 4.41 ± 0.546 µM; in series [2] (Homo sapiens, Caco-2, 72 h), 4.41 µM.

Take `O=C1SC(=Cc2ccccc2)C(=O)N1CCCO` [Compound 7a, 5-Benzylidene-3-(3-hydroxypropyl)thiazolidine-2,4-dione]: in series [1], the “EC100 (safe concentration at 100% cell viability)” value was 18.923 ± 1.959 µM. The molecule further had an IC50 in series [2] (Homo sapiens, Caco-2, 72 h) of 10.2 ± 0.77 µM.

Turning to `O=C1SC(=Cc2ccc([N+](=O)[O-])cc2)C(=O)N1CCCO` [Compound 7c, 3-(3-Hydroxypropyl)-5-(4-nitrobenzylidene)thiazolidine-2,4-dione], the “EC100 (safe concentration at 100% cell viability)” value in series [1] was found to be 11.439 ± 0.927 µM. This molecule also came in with an IC50 in series [2] (Homo sapiens, Caco-2, 72 h) of 6.77 ± 0.096 µM.

Consider `CN(C)c1ccc(C=C2SC(=O)N(CCCO)C2=O)cc1` [Compound 7d, 5-(4-(Dimethylamino)benzylidene)-3-(3-hydroxypropyl)thiazolidine-2,4-dione], for which the “EC100 (safe concentration at 100% cell viability)” value in series [1] came out at 12.073 ± 3.577 µM. In series [2] (Homo sapiens, Caco-2, 72 h), this molecule yielded an IC50 of 7.118 ± 0.01 µM.

Regarding `COc1cccc2c1C(=O)c1c(O)c3c(c(O)c1C2=O)C[C@@](O)(C(=O)CO)C[C@@H]3O[C@H]1C[C@H](N)[C@H](O)[C@H](C)O1` [DOX, doxorubicin], the “Inhibition of ALDH1A activity” value with ALDH1A was “about 4.800%”. Further, the “Fold increment in cellular ROS level relative to untreated cells” value in the series on Caco-2 cells was 4.065 folds. The “Inhibition of GPx activity” value in series [3] was 40.31%. Also, the “EC100 (safe concentration at 100% cell viability)” value in series [1] came out at 1.239 ± 0.285 µM. Further, the “Inhibition of intracellular SOD activity” value at Cu/Zn SOD turned out to be 30.78%. Moreover, the IC50 in series [2] turned out to be 19.9 ± 2.37 µM; in series [2] (Homo sapiens, Caco-2, 72 h) it was 19.9 µM.
